One experiment concerns the target T1, serotonin 1A receptor (Rattus norvegicus, UniProt P19327).
T1 construct: the cortex and hippocampal tissue were extracted from the brain; from tissue; host or cells: brain cortex and hippocampus of 7-week-old male S.D. rats, washed membrane homogenate
T1 sequence (P19327 1-422): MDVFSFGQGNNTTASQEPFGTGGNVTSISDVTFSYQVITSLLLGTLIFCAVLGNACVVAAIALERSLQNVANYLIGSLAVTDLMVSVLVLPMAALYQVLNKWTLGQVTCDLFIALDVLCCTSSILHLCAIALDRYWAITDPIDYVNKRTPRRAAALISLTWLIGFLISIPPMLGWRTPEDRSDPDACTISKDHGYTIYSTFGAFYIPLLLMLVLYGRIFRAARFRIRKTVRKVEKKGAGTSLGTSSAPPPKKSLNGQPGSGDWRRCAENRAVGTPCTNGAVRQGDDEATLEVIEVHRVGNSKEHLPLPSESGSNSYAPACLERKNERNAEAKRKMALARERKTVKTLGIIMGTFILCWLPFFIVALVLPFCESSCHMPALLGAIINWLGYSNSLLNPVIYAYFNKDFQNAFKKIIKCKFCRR
Description: Serotonin 1A receptor binding experiment (3H-8-OH-DPAT). The settings on record: rat cortex and hippocampal tissue; 0.5 nM 3H-8-OH-DPAT; IC50 in M; read-out: -logIC50 5-HT1A (converted). How it is done:
(§1) Affinity for intracerebral serotonin 1A and serotonin 2 receptor was checked in accordance with the method of Hall et al. (J. Neurochem., 44, 1685-1695, 1985) and the method of Leysen et al. (Mol. Pharmacol., 21, 301-314, 1982).
(§2) Stated more specifically, the cortex and hippocampal tissue were extracted from the brain of 7-wk old S.D. line male rats, mixed with 20 volumes of Tris-HCl buffer (50 mM, pH 7.7) and homogenized with a Teflon homogenizer. Thereafter, the homogenate was centrifuged at 39800×g for 20 min and the supernatant was discarded. Forty volumes of a buffer were added to the precipitate and the mixture was homogenized with a Polytron homogenizer, with the homogenate being centrifuged under the same condition as set forth above. The same procedure was repeated two more times and the final precipitate was homogenized with 40 volumes of a buffer; thereafter, the homogenate was stored at least overnight at -80° C. On the day when binding experiments were to be conducted, the homogenate was thawed at room temperature and incubated at 37° C. for 20 min to remove the endogenous serotonin.
(§3) Thereafter, centrifugation was conducted at 39800×g for 20 min and 40 volumes of a buffer were added to the precipitate, followed by homogenization. This procedure was repeated three times; to the final precipitate, a buffer was added in 65 volumes for the case of serotonin 1A receptor and in 80 volumes for the case of serotonin 2 receptor and the mixture was homogenized in preparation for the binding experiments that are described below. All procedures of experimentation except storage in a frozen state and thawing at room temperature were conducted at 4° C. or below.
A reaction solution containing 0.5 nM (final concentration) of 3H-8-hydroxy-2-(di-n-propylamino)tetralin (8-OH-DPAT), […] and 500 μl of brain homogenate in 1.0 ml (final volume) of a buffer was incubated at 25° C. for 30 min. Thereafter, the reaction solution was filtered by rapid passage through a glass filler. The filter was washed rapidly with an ice-cooled buffer (3 ml) three times, put into a scintillation vial together with a scintillation cocktail, and left to stand overnight at 4° C. On the next day, the vial was agitated well and measurements were conducted with a scintillation counter. To determine the amount of specific binding, the amount of binding in the presence of excess unlabeled serotonin (10 μM) was subtracted from the total amount of binding. As an index for the affinity of a test compound for either receptor, the concentration at which the specific binding of ^3 H-DPAT was inhibited by 50% (IC50, M) was determined using computer software EBDA/LIGAND (Biosoft).

The target in a further experiment is T2, serotonin 2 receptor (Rattus norvegicus, UniProt P14842).
T2 construct: the cortex and hippocampal tissue were extracted from the brain; from tissue; host or cells: brain cortex and hippocampus of 7-week-old male S.D. rats, washed membrane homogenate
Description: Serotonin 2 receptor binding experiment (3H-ketancerine). The settings on record: rat cortex and hippocampal tissue; 0.5 nM 3H-ketancerine; IC50 in M; read-out: -logIC50 5-HT2 (converted). How it is done: as §1, §2, §3
A reaction solution containing 0.5 nM (final concentration) of ^3 H-ketancerine and 500 μl of brain homogenate in 1.0 ml (final volume) of a buffer was incubated at 30° C. for 30 min. Subsequent procedures were the same as in the serotonin 1A receptor binding experiment and IC50 (M) was determined accordingly. To determine the amount of specific binding, the amount of binding in the presence of excess unlabelled methysergide ([…]) was subtracted from the total amount of binding.

Experiment [1] has as its system S.D. line male rats. Description: Antidepressant effect, compelled swim test (Porsolt), time over which rats remain motionless. Format: in vivo, rat. The following applies: peroral 20 mg/kg; for inhibition in vivo at 20 mg/kg: Rattus norvegicus, po, 0.5 h, 30 min before swim, read-out: Antidepressant effect, Efficacy. The protocol: An antidepression test was conducted in accordance with the method of Porsolt et al. (Europ. J. Pharmacol., 47, 379-391, 1978). Stated more specifically, 7-wk old S.D. line male rats were placed in a glass cylinder (18 cm^.phi. ×40 cm^H) for 15 min. The cylinder was filled with water (25° C.) to a depth of 15 cm. Thereafter, the rats were placed in a hot environment (32° C.) for 15 min before they were returned to the cage. Twenty-four hours later, the rats were compelled again to swim in the same cylinder for 5 min and the total time over which the rats remained motionless was measured. A test drug was administered perorally to each animal 30 min before it was compelled to swim for 5 min. Antidepressant agents are known to be capable of specifically reducing the time over which the rats would remain motionless (Psyehopharmaeol., 83, 1-16, 1984, and ibid., 94, 147-160, 1988). The antidepressant effect was calculated by the following formula: [formula]
(§4) The procedure of Test Examples 2 and 3 were repeated except that test compounds were administered perorally in a dose of 10 mg/kg.
(§5) The procedures of Test Example 2 and 3 were repeated, except that test compounds were administered perorally in a dose of 20 mg/kg to check the longevity of their antianxiety and antidepressant effects for 0.5, 2 and 4 h.

Experiment [2] relates to S.D. line male rats. Description: Antianxiety effect, water drinking under punishment (Vogel). Format: in vivo, rat. The settings on record: peroral 20 mg/kg; for change in vivo at 20 mg/kg: Rattus norvegicus, po, read-out: Antianxiety effect, Efficacy. How it is done:
Antianxiety test was conducted in accordance with a method adapted from the method of Vogel et al. (Psychopharmacol., 21, 1-7, 1971). Stated more specifically, S.D. line male rats weighing 250-300 g were entirely kept from water for 24 h and then placed in a concrete experimental box. […] The bottom of the box was made of a stainless steel grid, from which electric shock (0.2 mA, 0.5 sec) could be applied to the limbs of rats. The test schedule was as follows: first, the rats were acclimatized to the experimental box and trained for drinking water; this was done for 3 min without electric shock. The quantity of water drunk by the rats was then measured (under non-punishment). Then, the rats were kept from drinking water for 24 h. Thereafter, the quantity of water drunk by each rat was measured (before administration of test compound) under such conditions that an electric shock was applied each time a rat drank one water drop (under punishment).Thirty minutes later, a test drug was administered perorally and after an additional 20 min, the quantity of water drunk by each rat was again measured under punishment (after administration of test compound). The quantity of water drunk by rats will decrease under punishment but it is known that the initial level can be restored by administering an antianxiety agent.
The antianxiety effect of a test compound was calculated by the following formula: [formula]
as §4, §5

Where a name gives a salt, the structure may show the parent alone. A value given as a limit tells only on which side of the number the result lay.

T2 sequence (P14842 whole entry): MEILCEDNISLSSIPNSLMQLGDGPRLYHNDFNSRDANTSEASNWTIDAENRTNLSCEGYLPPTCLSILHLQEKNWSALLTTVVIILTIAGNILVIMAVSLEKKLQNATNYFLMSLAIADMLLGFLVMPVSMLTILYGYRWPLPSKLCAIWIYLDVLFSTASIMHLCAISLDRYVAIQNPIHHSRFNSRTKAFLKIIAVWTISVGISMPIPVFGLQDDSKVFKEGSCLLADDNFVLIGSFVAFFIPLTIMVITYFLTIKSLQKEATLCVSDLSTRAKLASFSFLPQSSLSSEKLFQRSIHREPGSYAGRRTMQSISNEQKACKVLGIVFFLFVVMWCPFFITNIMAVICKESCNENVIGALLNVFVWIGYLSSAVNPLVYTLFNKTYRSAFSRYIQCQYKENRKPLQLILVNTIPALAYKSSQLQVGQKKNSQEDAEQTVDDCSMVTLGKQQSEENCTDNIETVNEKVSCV

On to `O=C(NCCNCC1COc2cccc(O)c2O1)C12CC3CC(CC(C3)C1)C2` (stereo not shown) [Compound 18, N-{[2-(8-hydroxy-1,4-benzodioxan-2ylmethyl)amino]ethyl}tricyclo[^3,3,1,1^3, ^7]decane-1-carboxyamide], for which, at serotonin 1A receptor, the IC50 was 0.158 nM. The IC50 on serotonin 2 receptor was 50.1 nM. Moreover, in the experiment with S.D. line male rats [1], the inhibition in vivo at 20 mg/kg is 78.5 ± 4.5% and the “Antidepressant effect” value is given as “better antidepressant effects than WY-50324”. Also, in the experiment on S.D. line male rats [2], the change in vivo at 20 mg/kg came to 80.1 ± 6.1% and the “Antianxiety effect” value is “better effects than MDL-73005”.
With `COc1cccc2c1OCC(CNCCNC(=O)C13CC4CC(CC(C4)C1)C3)O2` (stereo not shown) [Compound 6, N-{[2-(5-methoxy-1,4-benzodioxan-2-ylmethyl)amino]ethyl}tricyclo[3,3,1^3, ^7]decane-1-carboxyamide], the IC50 at serotonin 1A receptor was 4.07 nM. Further, the IC50 on serotonin 2 receptor is 75.9 nM. Moreover, in the experiment on S.D. line male rats [1], the inhibition in vivo at 20 mg/kg was determined as 82.2 ± 6.6% and the “Antidepressant effect” value is listed as “better antidepressant effects than WY-50324”. Also, in the experiment on S.D. line male rats [2], the change in vivo at 20 mg/kg stood at 28.7 ± 9.5%.
In the case of `CCCN(CCNC(=O)C12CC3CC(CC(C3)C1)C2)CC1COc2cccc(C)c2O1` (stereo not shown) [Compound 10], the IC50 was 10 nM at serotonin 1A receptor and 631 nM at serotonin 2 receptor.
Regarding `CC(=O)c1cccc2c1OC(CNCCNC(=O)C13CC4CC(CC(C4)C1)C3)CO2` (stereo not shown) [Compound 15, N-{[2-(8-acetyl-1,4benzodioxan-2ylmethyl)amino]ethyl}tricyclo[3,3,1,1^3, ^7]decane-1-carboxyamide], the IC50 on serotonin 1A receptor was 3.16 nM; on serotonin 2 receptor it was 63.1 nM.
As to `C=CCN(CCNC(=O)C12CC3CC(CC(C3)C1)C2)CC1COc2cccc(C)c2O1` (stereo not shown) [Compound 9, N-{[2-(8-methyl-1,4-benzodioxan-2-ylmethyl)allylamino]ethyl}tricyclo[3,3,1^3, ^7]decane-1-carboxyamide], the IC50 on serotonin 1A receptor was 3.98 nM; at serotonin 2 receptor it was 1000 nM.
For the compound `O=C(NCCNCC1COc2c(O)cccc2O1)C12CC3CC(CC(C3)C1)C2` (stereo not shown) [Compound 19, N-{[2-(5-hydroxy-1,4-benzodioxan-2ylmethyl)amino]ethyl)tricyclo[3,3,1,1^3, ^7]decane-1-1-carboxyamide], the IC50 at serotonin 1A receptor was 6.31 nM; on serotonin 2 receptor, 1000 nM.
For `Cc1cccc2c1OC(CNCCNC(=O)C13CC4CC(CC(C4)C1)C3)CO2` (single isomer, unassigned; (+)) [Compound 8, (+)-N-{[2-(8-methyl-1,4-benzodioxan-2ylmethyl)amino]ethyl}tricyclo[3,3,1,1^3, ^7]decane-1-carboxyamide hydrochloride], the IC50 at serotonin 1A receptor was 6.31 nM; on serotonin 2 receptor it was 50.1 nM.
Regarding `O=C(NCCNCC1COc2ccc(O)cc2O1)C12CC3CC(CC(C3)C1)C2` (stereo not shown) [Compound 17, N-{[2-(7-hydroxy-1,4-benzodioxan-2ylmethyl)amino]ethyl}tricyclo[3,3,^3, ^7]decane-1-carboxyamide], at serotonin 1A receptor, the IC50 is 0.251 nM. In addition, on serotonin 2 receptor, the IC50 is 251 nM. For the same compound, in the experiment with S.D. line male rats [2], the change in vivo at 20 mg/kg worked out at 66.6 ± 8.7% and the “Antianxiety effect” value was “comparable effects to MDL-73005”.
`Cc1cccc2c1OC(CN(CCNC(=O)C13CC4CC(CC(C4)C1)C3)Cc1ccccc1)CO2` (stereo not shown) [Compound a, N-{[2-(8-methyl 1,4-benzodioxan-2-ylmethyl)benzylamino]ethyl}tricyclo[3,3,1,^3, ^7]decane-1-carboxyamide]: the IC50 at serotonin 1A receptor was 158 nM; on serotonin 2 receptor it was greater than 1000 nM.
As to `O=C(NCCNCC1COc2cc(O)ccc2O1)C12CC3CC(CC(C3)C1)C2` (stereo not shown) [Compound 16, N-{[2-(6-hydroxy-1,4-benzodioxan-2ylmethyl)amino]ethyl}tricyclo[3,3,1,1^3, ^7]decane-1-carboxyamide], the IC50 on serotonin 1A receptor was 2.51 nM. Also, the IC50 at serotonin 2 receptor is 158 nM. In the experiment on S.D. line male rats [2], the change in vivo at 20 mg/kg came to 46.5 ± 4.7% and the “Antianxiety effect” value is on record as “almost comparable effects to WY-50324”.
Regarding `Cc1cc(C)c2c(c1)OCC(CNCCNC(=O)C13CC4CC(CC(C4)C1)C3)O2` (stereo not shown) [Compound 20, N-{[2(6,8-dimethyl-1,4-benzodioxan-2ylmethyl)amino]ethyl)tricyclo[3,3,1,1^3, ^7]decane-1-carboxyamide], the IC50 on serotonin 1A receptor is greater than 31.6 nM; on serotonin 2 receptor, 200 nM.
Regarding `CC(C)Cc1ccc2c(c1)OC(CNCCNC(=O)C13CC4CC(CC(C4)C1)C3)CO2` (stereo not shown) [Compound 13, N-{[2-(7-isobutyl-1,4-benzodioxan-2ylmethyl)amino]ethyl}tricyclo[3,3,1,1^3, ^7]decane-1-carboxyamide], the results for the IC50 at serotonin 1A receptor and at serotonin 2 receptor were 63.1 nM and 316 nM, respectively.
Consider `COc1ccc2c(c1)OC(CNCCNC(=O)C13CC4CC(CC(C4)C1)C3)CO2` (stereo not shown) [Compound 14, N-{[2-(7-methoxy-1,4-benzodioxan-2-ylmethyl)amino]ethyl}tricyclo[3,3,1,1^3, ^7]decane-1-carboxyamide], for which the IC50 on serotonin 1A receptor is 0.398 nM; on serotonin 2 receptor it was 25.1 nM. In addition, the inhibition in vivo at 20 mg/kg in the experiment with S.D. line male rats [1] amounted to 46.9 ± 7.1%.
Take `Cc1ccc(C)c2c1OCC(CNCCNC(=O)C13CC4CC(CC(C4)C1)C3)O2` (stereo not shown) [Compound 11, N-{[2-(5,8-dimethyl-1,4-benzodioxan-2-ylmethyl)amino]ethyl}tricyclo[3,3,1^3, ^7]decane-1-carboxyamide]: the values for the IC50 at serotonin 1A receptor and at serotonin 2 receptor were 3.98 nM and 79.4 nM, respectively.

Values taken from US5480905A, “Benzodioxane derivatives” (Chugai Seiyaku Kabushiki Kaisha, priority 1991, dated 1996).
